Assay results from US20240327427A1, “NEW COMPOUNDS FOR THE TREATMENT OF ALZHEIMER'S DISEASE” (Icahn School of Medicine at Mount Sinai, priority 2020, published 2024).
Entries after “also recorded” stand apart in the source; their conditions may differ.

Assays:
Assay type in all cases: cell-based, human
ATP6V1A [1] = test: ATP6V1A mRNA expression in drug-treated NPCs (LINCS profiles); conditions: drug-treated vs DMSO-treated, LINCS data
Description: Compounds were screened for drugs that can rescue the in vitro and in vivo phenotypes arising from ATP6V1A deficits. Using their drug repositioning tool, Ensemble of Multiple Drug Repositioning Approaches (EMUDRA) (Zhou et al., 2018b), the inventors matched the disease signature from the BM36-PHG region and the signatures of 3,629 drugs tested in the NPCs in the Library of Integrated Network-based Cellular Signatures (LINCS) project (FIG. 6A). The inventors further prioritized candidate drugs by their potential to increase the mRNA expression of ATP6V1A in the NPCs.
To identify existing drugs that can restore the molecular expression change in the LOAD brains, the inventors performed a drug repositioning analysis using EMUDRA, which provides a novel computational algorithm to match disease signatures and drug-induced signatures. The inventors downloaded drug-treated gene expression profiles (level 3 data of quantile-normalized and log 2 transformed expression levels from human iPSC-derived neural progenitor cells (NPCs) from the Library of Integrated Network-Based Cellular Signatures (LINCS) program. After removing probes sets mapping to multiple genes or without known gene annotation, the remaining data were adjusted for batch effects using linear regression. The mean expression level of multiple probe sets that match to the same gene was used as the expression level for that gene. For each drug, the applied drug signature was the transcriptome-wide expression difference between drug-treated and DMSO-treated gene expression profiles. The inventors matched each of the drug signatures to the LOAD signature using EMUDRA to find drugs that could reverse the LOAD signature. […] In total, 3,629 drug signatures were analyzed and ranked. The inventors further prioritized the top-ranked drugs that can increase ATP6V1A mRNA expression in the NPCs.

ATP6V1A [2] = test: ATP6V1A gene expression-based compound screening (qRT-PCR) in hiPSC-derived NPCs; conditions: for ATP6V1A mRNA level / gene expression: hiPSC-derived NPCs, qRT-PCR vs DMSO
Description: Thirty nine new compounds were synthesized by chemical synthesis and evaluated for their capability to elevate the mRNA level of ATP6V1A and the neuronal activities in hiPSC-derived NPCs. […] These disclosures indicate that the chemical structure to the right in LQ081-166 has a structure-activity relationship necessary for ATP6V1A activation.
To identify useful drugs for targeting this novel therapeutic target, the inventors synthesized 39 new compounds by chemical synthesis and evaluated their capability of elevating the mRNA level of ATP6V1A and neuronal activity in hiPSC-derived NPCs.
To improve the potency and efficacy of the drugs, an additional 18 derivatives based on LQ081-166 were synthesized (FIG. 7B). […] The inventors determined that the thioester and benzyl group in LQ081-166 has a structure-activity relationship necessary for ATP6V1A activation.
FIG. 7. ATP6V1A gene expression-based compounds screening. (A) qRT-PCR analysis (N=3-12) to determine the relative changes in ATP6V1A gene expression after exposure to 40 chemical compounds. ****, p<0.0001 (one-way ANOVA). DMSO serves as vehicle control. (B) Molecular modification of LQ081-166 and chemical structure of LQ108-32. (C) qRT-PCR analysis of relative ATP6V1A gene expression after exposure to LQ081-166 derivatives. Grey scale bars in the graph are associated with the categories of molecular modification. Note that LQ108-51/52/53 is a small pool of three LQ081-166 derivatives. (D) Effects of LQ081-166 at 0.3, 1, 3, and 10 μM on ATP6V1A mRNA level after 24-h exposure. *, p<0.05; **, p<0.01 (one-way ANOVA).
Quantitative reverse transcription PCR (qRT-PCR) was performed as previously described. […] Quantitative transcript analysis was performed using a QuantStudio 7 Flex Real-Time PCR System with the Power SYBR Green RNA-to-Ct Real-Time qPCR Kit (all Thermo Fisher Scientific). […]
A stock solution of LQ081-166 (molecular weight: 452.63) at 3 mM is prepared in dimethyl sulfoxide (DMSO). […] After 24-hour treatment, RNA was extracted from cells for quantitative PCR. […]

ATP6V1A [3] = test: ATP6V1A mRNA (qRT-PCR) and protein (western blot) levels in hiPSC-derived NGN2 neurons (iNs); conditions: for transcriptional and translational levels of ATP6V1A: D21 iNs, concentrations between 1 and 30 μM
Method: To verify this discovery, the inventors measured the transcriptional and translational levels of ATP6V1A in D21 iNs treated with the 3 HDAC inhibitors at a series of concentrations between 1 and 30 μM.
CRISPR inhibition (CRISPRi) was used to repress endogenous ATP6V1A in hiPSC-derived NGN2 neurons. […] Next, the inventors investigated whether LQ081-166 rescued the phenotypes of ATP6V1A deficit and reduced neuronal activity.
Quantitative reverse transcription PCR (qRT-PCR) was performed as previously described. Specifically, cell cultures were harvested with Trizol and total RNA extraction was carried out following the manufacturer's instructions. Quantitative transcript analysis was performed using a QuantStudio 7 Flex Real-Time PCR System with the Power SYBR Green RNA-to-Ct Real-Time qPCR Kit (all Thermo Fisher Scientific). Total RNA template (25 ng per reaction) was added to the PCR mix, including primers listed below. qPCR conditions were as follows; 48° C. for 30 min, 95° C. for 10 min followed by 40 cycles (95° C. for 15 s, 60° C. for 60 s). All qPCR data is collected from at least 3 independent biological replicates of one experiment. Data analyses were performed using GraphPad PRISM 6 software.
Cells were rinsed with ice-cold phosphate-buffered saline (PBS), pelleted, and lyzed in RIPA Lysis and Extraction Buffer (Thermo Fisher Scientific, #89900) containing Halt™ Protease and Phosphatase Inhibitor Cocktail (Thermo Fisher Scientific, #78440). Alternatively, MSBB BM36 brain samples were homogenized with similar methods. Samples were sonicated for 1 minute then centrifuged at 13,000× rpm for 10 min. The supernatant was collected, and total protein concentration was determined using Quick Start™ Bradford Protein Assay (Bio-Rad, 5000201) following the manufacturer's instructions.
Images were captured and quantified using the Odyssey® Imaging Systems (LI-COR. Inc.).
(§1) A stock solution of LQ081-166 (molecular weight: 452.63) at 3 mM is prepared in dimethyl sulfoxide (DMSO). Once prepared, aliquot the stock solution into 100 μL amounts and store at −80° C. Avoid repeated freeze-thaw cycles. The stock is diluted 1000× into neuronal medium to obtain 3 μM for assays. After 24-hour treatment, RNA was extracted from cells for quantitative PCR. In the MEA assay, LQ081-166 was added on neuronal differentiation day 14. Replace with medium containing drug or vehicle every 2-3 days until the final recording day.

[4] = system: hiPSC-derived NGN2 neurons; test: Multi-electrode array (MEA) neuronal activity
Method: To evaluate electrical activity of NGN2-neurons by MEA, density-matched isogenic NGN2-neuronal populations, co-cultured with pHAs, were prepared as described above. Specifically, at day 3, pHAs were split as 17,000 cells/well in a Matrigel-coated 48W MEA plate (Axion Biosystems, M768-tMEA-48W) and maintained as above. At day 7, NGN2-neurons were detached, spun down and seeded on the pHA culture. Outer space of each well in the plate was filled up with autoclaved/deionized water to minimize the evaporation of marginal wells (“edge effect”) during long-term culture. Half volume of neuronal medium (supplemented with 2% FBS) was replaced with fresh medium including 200 nM Ara-C from day 9 until the end of MEA recording. Electrical activity of neurons was recorded daily during day 14-24. On the recording day, the plate was loaded into the Axion Maestro MEA reader (Axion Biosystems). Recording was performed via AxiS 2.4 for 10 mins. Quantitative analysis of the recording was exported as a Microsoft excel sheet. Data were analyzed using GraphPad PRISM 6 software.
as §1

| Compound | ATP6V1A (log2FC) (ATP6V1A [1]) | other results |
| --- | --- | --- |
| C[C@@H]1CN([C@@H](C)CO)C(=O)c2cccc(NC(=O)c3ccc(-c4nccs4)cc3)c2O[C@@H]1CN(C)Cc1ccc(C(=O)Nc2ccccc2N)cc1 [BRD-K56196992] | 1.47 | – |
| CC(/C=C/C(=O)NO)=C\[C@@H](C)C(=O)c1ccc(N(C)C)cc1 [trichostatin a] | 0.61 | – |
| C[C@@H]1O[C@@H](O[C@@H]2C=C3CCC4C(CC[C@]5(C)[C@@H](c6ccc(=O)oc6)CC[C@]45O)[C@@]3(C)CC2)[C@H](O)[C@H](O)[C@H]1O (stereo partly shown) [BRD-A34806832] | 1.49 | – |
| Nc1ccccc1NC(=O)c1ccc(CNC(=O)OCc2cccnc2)cc1 [BRD-K77908580] | 1.54 | – |
| O=C(CCCCCCC(=O)SCCc1ccccc1)Nc1nc(-c2ccccc2)cs1 [LQ108-32, S-phenethyl 8-oxo-8-((4-phenylthiazol-2-yl)amino)octanethioate] | – | ATP6V1A mRNA level / gene expression (ATP6V1A [2]; listed as LQ081-32): did not affect; also recorded: inability to affect |
| CC[C@H]1CN2CCc3cc(OC)c(OC)cc3C2C[C@@H]1CC1NCCc2cc(OC)c(OC)cc21 (stereo partly shown) [BRD-A25687296] | 2.37 | – |
| C[C@@H]1C[C@@H]([C@H](O)CC2CC(=O)NC(=O)C2)C(=O)[C@@H](C)C1 [BRD-K36055864] | 2.00 | – |
| CC1CC(C)C(=O)C(C(O)CC2CC(=O)NC(=O)C2)C1 (stereo not shown) [BRD-A62184259] | 1.46 | – |
| C[C@]12CC[C@H]3[C@@H](CC[C@]4(O)C[C@@H](O)CC[C@]34C=O)[C@@]1(O)CC[C@@H]2C1=CC(=O)OC1 [BRD-K84595254] | 2.98 | – |
| CN(C)c1ccc(C(=O)NCCCCCCC(=O)NO)cc1 [m-344] | 0.84 | – |
| CCC(=O)CCCCC[C@@H]1NC(=O)[C@H]2CCCCN2C(=O)[C@H]([C@@H](C)CC)NC(=O)[C@H](Cc2cn(OC)c3ccccc23)NC1=O [apicidin] | 0.99 | – |
| Nc1ccccc1NC(=O)c1ccc(CNC(=O)OCc2cccnc2)cc1 [MS-275] | – | transcriptional and translational levels of ATP6V1A (ATP6V1A [3]): ineffective |
| O=C(CCCCCN1C(=O)c2cccc3cccc(c23)C1=O)NO [scriptaid] | 0.78 | – |
| O=C(CCCCCCC(=O)Nc1ccccc1)NO [SAHA] | 0.77 | transcriptional and translational levels of ATP6V1A (ATP6V1A [3]): ineffective |
| CC[C@H]1CN2CCc3cc(OC)c(OC)cc3[C@@H]2C[C@@H]1C[C@H]1NCCc2cc(O)c(OC)cc21 [BRD-K80348542] | 1.09 | – |
| O=C(CCCCCCSC(=O)CCc1ccccc1)Nc1nc(-c2ccccc2)cs1 [LQ081-166, S-(7-oxo-7-((4-phenylthiazol-2-yl)amino)heptyl) 3-phenylpropanethioate] | – | restoration of neuronal activity (MEA) ([4]; ATP6V1A KD neurons, regardless of presence/absence of Aβ exposure, 3 μM): partially restoring neuronal activity; neuronal activity (MEA) ([4]; NGN2 neurons, 3 μM LQ081-166): potent activator of neuronal activity; dose dependence of effect on ATP6V1A mRNA level (ATP6V1A [2]; 0.3, 1, 3 and 10 μM, 24-h exposure): dose-dependent effect; ATP6V1A mRNA level / gene expression (ATP6V1A [2]): most significantly increased; ATP6V1A mRNA level (ATP6V1A [3]; ATP6V1A KD hiPSC-derived NGN2 neurons): restores ATP6V1A mRNA level; ATP6V1A mRNA level (ATP6V1A [3]; NGN2 neurons, 3 μM, 24 hours): significantly increased |
